Five compounds from patent publication US20030225007A1, “Sulfonamide derivatives of 3-substituted imidazol[1,2-d]-1,2,4-thiadiazoles and 3-substituted-[1,2,4] thiadiazolo[4,5-a] benzimidazole as inhibitors of fibrin cross-linking and transglutaminases” (Apotex Inc., priority 2002, published 2003) can be followed below.

Assay [1] concerns the target T1, Factor XIIIa (activated FXIII) (Homo sapiens, UniProt P00488).
T1 construct: purchased Enzyme Research Laboratories, Ltd
T1 sequence (P00488 39-732 limits assumed): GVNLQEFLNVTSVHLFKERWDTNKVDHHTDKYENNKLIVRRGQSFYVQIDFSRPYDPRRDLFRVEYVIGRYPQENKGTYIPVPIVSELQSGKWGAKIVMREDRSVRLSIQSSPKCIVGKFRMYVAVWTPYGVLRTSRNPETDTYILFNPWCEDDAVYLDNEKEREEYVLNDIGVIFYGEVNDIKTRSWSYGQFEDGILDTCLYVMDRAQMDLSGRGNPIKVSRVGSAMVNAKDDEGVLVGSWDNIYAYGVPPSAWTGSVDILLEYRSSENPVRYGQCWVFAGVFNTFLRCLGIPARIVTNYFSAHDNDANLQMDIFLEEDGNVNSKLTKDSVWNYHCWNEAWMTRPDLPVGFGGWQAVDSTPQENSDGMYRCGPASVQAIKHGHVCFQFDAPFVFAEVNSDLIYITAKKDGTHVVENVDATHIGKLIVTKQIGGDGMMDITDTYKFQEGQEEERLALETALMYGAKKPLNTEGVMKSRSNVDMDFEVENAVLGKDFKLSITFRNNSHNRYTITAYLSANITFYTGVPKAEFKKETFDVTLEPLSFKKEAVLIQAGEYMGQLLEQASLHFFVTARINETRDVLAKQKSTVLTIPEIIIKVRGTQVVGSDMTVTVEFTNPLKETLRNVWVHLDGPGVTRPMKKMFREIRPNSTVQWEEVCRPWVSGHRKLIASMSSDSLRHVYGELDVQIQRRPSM
The experiment in a line: Inactivation of purified Factor XIIIa (monodansylcadaverine incorporation into dimethylcasein, fluorescence). In kind it is biochemical. Conditions: for kinact/KI: purified Factor XIIIa, method of Kitz and Wilson, read-out: Second order rate constant for inactivation. The method in brief: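 FXIII activated by human thrombin (10 NIH units/mL, 20 min, 37° C.), thrombin quenched with hirudin. Enzyme then preincubated with inhibitor 5 min at 37° C. without substrate. Residual activity read as monodansylcadaverine (20 μM) incorporation into dimethylcasein, fluorescence λexc 360/λem 500 nm. IC50 from % remaining activity versus log concentration; Kitz-Wilson second-order inactivation constants.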

The target in assay [2] is T2, endogenous Factor XIII in plasma (Plasma FXIIIa) (Homo sapiens, UniProt P00488).
T2 construct: from tissue; host or cells: citrated plasma (desensitized by heating)
T2 sequence (P00488 39-732 limits assumed): T1 sequence (P00488 39-732 limits assumed)
The experiment in a line: Inactivation of endogenous Factor XIII in plasma. Type of assay: biochemical. To be noted: citrated plasma, thrombin-activated, 5 min at 37° C. As to the method: Citrated plasma (0.235 mL) was “desensitized” by heating with ethylene glycol monomethyl ether (0.235 mL, 20% solution in water) in a glass test tube at 56° C. for 4 min., as described by Lorand (Lorand, L.; Lockridge, O. M.; Campbell, L. K.; Myhrman, R.; Bruner-Lorand, J. Anal.Biochem. 1971, 44, 221-231). After cooling to 37° C., calcium chloride (20 μL, 0.4 M in 50 mM Tris-HCl pH 7.5) and inhibitor solution in 50% glycerol (59 μL) were added. Bovine thrombin (30 NIH units in 118 μL of 50 mM Tris-HCl pH 7.5 containing 20 mM CaCl2) was added and the mixture was incubated at 37° C. for 5 min.
An assay mixture composed of 0.1 M sodium borate, pH 9.0, 0.3% ethylene glycol monomethyl ether, 32 μM monodansylcadaverine, 10 mM CaCl2 and 0.08% dimethyl casein in a final volume of 1.263 mL was prepared in a spectrofluorometric cell and incubated at 37° C. for a few minutes. To assay the residual enzyme activity, 567 μL of the plasma solution was transferred to the assay mixture. The covalent incorporation of monodansylcadaverine into casein was monitored by an increase in fluorescence at λex=360 nm and λem=500 nm, as previously described (Curtis, C. G.; Lorand, L. Methods Enzymol. 1976, 45, 177-191). To determine uninhibited enzyme activity, inhibitor solution was replaced by 50% glycerol. IC50 values (inhibitor concentration resulting in 50% enzyme inactivation) were determined by plotting the percent of remaining enzyme activity against logarithm of inhibitor concentration.

The mark [3] stands for this setting: purified activated FXIII, 50% enzyme inactivation after 5-min incubation with inhibitor at 37° C. in the absence of substrate, read-out: FXIIIa (IC50 in μM).
The mark [4] stands for this setting: values without asterisk, purified FXIIIa, 5-min incubation, read-out: FXIIIa IC50 determined by method in Example 16.

Read-outs that look alike come from different tables or passages of the source.

Consider `O=S(=O)(NCCCCCCNc1nsc2nccn12)c1cccc2ccccc12` [1-naphthyl, N-[6-(imidazo[1,2-d][1,2,4]thiadiazol-3-ylamino)hexyl]naphthalene-1-sulfonamide], for which the kinact/KI in assay [1] was determined as 3300 M⁻¹ s⁻¹. The IC50 – broadly, the concentration that inhibits the measured activity by half – in assay [1] (setting [3]) is 0.52 µM; in assay [1] (setting [4]), 0.52 µM; in assay [2], 8.4 µM.

Turning to `O=S(=O)(Cc1ccccc1)NCCCCCCNc1nsc2nccn12` [2 / CH2Ph, N-[6-(imidazo[1,2-d][1,2,4]thiadiazol-3-ylamino)hexyl]-1-phenylmethanesulfonamide], the IC50 came out at 7.8 µM in assay [1] (setting [4]) and 19 µM in assay [2].

For `O=S(=O)(NCCCCCCNc1nsc2nccn12)c1ccc(F)cc1F` [2,4-diF-Ph, 2,4-difluoro-N-[6-(imidazo[1,2-d][1,2,4]thiadiazol-3-ylamino)hexyl]benzenesulfonamide], the IC50 in assay [1] (setting [3]) is 1.4 µM; in assay [1] (setting [4]), 1.4 µM; in assay [2], 6.1 µM.

As for `O=S(=O)(NCCCCCCNc1nsc2nccn12)c1ccc(OC(F)(F)F)cc1` [4-OCF3-Ph, N-[6-(imidazo[1,2-d][1,2,4]thiadiazol-3-ylamino)hexyl]-4-trifluoromethoxybenzenesulfonamide], the IC50 in assay [1] (setting [4]) came out at 1.6 µM; in assay [2], 31 µM.

`O=C(O)CN(CCCCCCNS(=O)(=O)c1ccccc1[N+](=O)[O-])c1nsc2nccn12` [H / CH2CO2H / 2-NO2-Ph, N-imidazo[1,2-d][1,2,4]thiadiazol-3-yl-N-(6-{[(2-nitrophenyl)sulfonyl]amino}hexyl)glycine]: the kinact/KI in assay [1] worked out at 4500 M⁻¹ s⁻¹. Moreover, the IC50 in assay [1] (setting [3]) and in assay [1] (setting [4]) was 0.62 µM in each case.
